Holding throughout (type): toxicity, organism-based
Data set [1] relates to Salmonella typhimurium. The data set is described as follows: Mutagenicity in Salmonella typhimurium TA97a assessed as mutagenicity index at 570.37 uM/plate incubated for 90 mins at 37 degC in absence of liver S9 fractions by Ames test relative to untreated control. To be noted: salmonella enterica subsp. enterica serovar typhimurium, 1.5 h. A general note: In the Ames test, an excess of revertant colonies over the control signals mutagenicity.

Data set [2] relates to Salmonella typhimurium. Kind of data set: Mutagenicity in Salmonella typhimurium TA100 assessed as mutagenicity index at 296.15 uM/plate incubated for 90 mins at 37 degC in absence of liver S9 fractions by Ames test relative to untreated control. To be noted: salmonella enterica subsp. enterica serovar typhimurium, 1.5 h.
Data set [3] concerns Salmonella typhimurium. Kind of data set: Mutagenicity in Salmonella typhimurium TA97a assessed as mutagenicity index at 296.15 uM/plate incubated for 90 mins at 37 degC in absence of liver S9 fractions by Ames test relative to untreated control. To be noted: salmonella enterica subsp. enterica serovar typhimurium, 1.5 h.
The test system of data set [4] is Salmonella typhimurium. The data set is described as follows: Mutagenicity in Salmonella typhimurium TA97a assessed as mutagenicity index at 150.98 uM/plate incubated for 90 mins at 37 degC in absence of liver S9 fractions by Ames test relative to untreated control. To be noted: salmonella enterica subsp. enterica serovar typhimurium, 1.5 h.
Data set [5] relates to Salmonella typhimurium. The data set is described as follows: Mutagenicity in Salmonella typhimurium TA98 assessed as mutagenicity index at 700.00 uM/plate incubated for 90 mins at 37 degC in absence of liver S9 fractions by Ames test relative to untreated control. As to conditions: salmonella enterica subsp. enterica serovar typhimurium, 1.5 h.
The subject of data set [6] is Salmonella typhimurium. Kind of data set: Mutagenicity in Salmonella typhimurium TA100 assessed as mutagenicity index at 570.37 uM/plate incubated for 90 mins at 37 degC in presence of liver S9 fractions by Ames test relative to untreated control. As to conditions: salmonella enterica subsp. enterica serovar typhimurium, s9, 1.5 h.
In data set [7] the test system is Salmonella typhimurium. Kind of data set: Mutagenicity in Salmonella typhimurium TA102 assessed as mutagenicity index at 570.37 uM/plate incubated for 90 mins at 37 degC in presence of liver S9 fractions by Ames test relative to untreated control. To be noted: salmonella enterica subsp. enterica serovar typhimurium, s9, 1.5 h.
For data set [8], the system named is Salmonella typhimurium. Kind of data set: Mutagenicity in Salmonella typhimurium TA102 assessed as mutagenicity index at 296.15 uM/plate incubated for 90 mins at 37 degC in absence of liver S9 fractions by Ames test relative to untreated control. To be noted: salmonella enterica subsp. enterica serovar typhimurium, 1.5 h.
Data set [9] has as its system Salmonella typhimurium. The data set is described as follows: Mutagenicity in Salmonella typhimurium TA102 assessed as mutagenicity index at 150.98 uM/plate incubated for 90 mins at 37 degC in absence of liver S9 fractions by Ames test relative to untreated control. To be noted: salmonella enterica subsp. enterica serovar typhimurium, 1.5 h.
Data set [10] relates to Salmonella typhimurium. The data set is described as follows: Mutagenicity in Salmonella typhimurium TA98 assessed as mutagenicity index at 700.00 uM/plate incubated for 90 mins at 37 degC in presence of liver S9 fractions by Ames test relative to untreated control. To be noted: salmonella enterica subsp. enterica serovar typhimurium, s9, 1.5 h.
Data set [11] relates to Salmonella typhimurium. The data set is described as follows: Mutagenicity in Salmonella typhimurium TA98 assessed as mutagenicity index at 435.85 uM/plate incubated for 90 mins at 37 degC in absence of liver S9 fractions by Ames test relative to untreated control. As to conditions: salmonella enterica subsp. enterica serovar typhimurium, 1.5 h.
In data set [12] the test system is Salmonella typhimurium. Kind of data set: Mutagenicity in Salmonella typhimurium TA102 assessed as mutagenicity index at 435.85 uM/plate incubated for 90 mins at 37 degC in absence of liver S9 fractions by Ames test relative to untreated control. To be noted: salmonella enterica subsp. enterica serovar typhimurium, 1.5 h.
Data set [13] has as its system Salmonella typhimurium. The data set is described as follows: Mutagenicity in Salmonella typhimurium TA97a assessed as mutagenicity index at 435.85 uM/plate incubated for 90 mins at 37 degC in presence of liver S9 fractions by Ames test relative to untreated control. To be noted: salmonella enterica subsp. enterica serovar typhimurium, s9, 1.5 h.
Data set [14] deals with Salmonella typhimurium. Kind of data set: Mutagenicity in Salmonella typhimurium TA98 assessed as mutagenicity index at 150.98 uM/plate incubated for 90 mins at 37 degC in presence of liver S9 fractions by Ames test relative to untreated control. As to conditions: salmonella enterica subsp. enterica serovar typhimurium, s9, 1.5 h.
In data set [15] the test system is Salmonella typhimurium. The data set is described as follows: Mutagenicity in Salmonella typhimurium TA100 assessed as mutagenicity index at 700.00 uM/plate incubated for 90 mins at 37 degC in presence of liver S9 fractions by Ames test relative to untreated control. As to conditions: salmonella enterica subsp. enterica serovar typhimurium, s9, 1.5 h.
The subject of data set [16] is Salmonella typhimurium. Kind of data set: Mutagenicity in Salmonella typhimurium TA102 assessed as mutagenicity index at 905.66 uM/plate incubated for 90 mins at 37 degC in presence of liver S9 fractions by Ames test relative to control. To be noted: salmonella enterica subsp. enterica serovar typhimurium, s9, 1.5 h.
The subject of data set [17] is Salmonella typhimurium. Kind of data set: Mutagenicity in Salmonella typhimurium TA98 assessed as mutagenicity index at 1454.55 uM/plate incubated for 90 mins at 37 degC in absence of liver S9 fractions by Ames test relative to control. To be noted: salmonella enterica subsp. enterica serovar typhimurium, 1.5 h.
The subject of data set [18] is Salmonella typhimurium. Kind of data set: Mutagenicity in Salmonella typhimurium TA98 assessed as mutagenicity index at 1185.19 uM/plate incubated for 90 mins at 37 degC in absence of liver S9 fractions by Ames test relative to control. As to conditions: salmonella enterica subsp. enterica serovar typhimurium, 1.5 h.
For data set [19], the system named is Salmonella typhimurium. Kind of data set: Mutagenicity in Salmonella typhimurium TA102 assessed as mutagenicity index at 313.73 uM/plate incubated for 90 mins at 37 degC in presence of liver S9 fractions by Ames test relative to control. As to conditions: salmonella enterica subsp. enterica serovar typhimurium, s9, 1.5 h.
Data set [20] concerns Salmonella typhimurium. The data set is described as follows: Mutagenicity in Salmonella typhimurium TA97a assessed as mutagenicity index at 313.73 uM/plate incubated for 90 mins at 37 degC in absence of liver S9 fractions by Ames test relative to control. To be noted: salmonella enterica subsp. enterica serovar typhimurium, 1.5 h.
The subject of data set [21] is Salmonella typhimurium. Kind of data set: Mutagenicity in Salmonella typhimurium TA98 assessed as mutagenicity index at 313.73 uM/plate incubated for 90 mins at 37 degC in absence of liver S9 fractions by Ames test relative to control. As to conditions: salmonella enterica subsp. enterica serovar typhimurium, 1.5 h.
The test system of data set [22] is Salmonella typhimurium. The data set is described as follows: Mutagenicity in Salmonella typhimurium TA102 assessed as mutagenicity index at 616.38 uM/plate incubated for 90 mins at 37 degC in absence of liver S9 fractions by Ames test relative to control. As to conditions: salmonella enterica subsp. enterica serovar typhimurium, 1.5 h.
Data set [23] deals with Salmonella typhimurium. The data set is described as follows: Mutagenicity in Salmonella typhimurium TA102 assessed as mutagenicity index at 1185.19 uM/plate incubated for 90 mins at 37 degC in absence of liver S9 fractions by Ames test relative to control. To be noted: salmonella enterica subsp. enterica serovar typhimurium, 1.5 h.
Data set [24] concerns Salmonella typhimurium. The data set is described as follows: Mutagenicity in Salmonella typhimurium TA98 assessed as mutagenicity index at 905.66 uM/plate incubated for 90 mins at 37 degC in presence of liver S9 fractions by Ames test relative to control. To be noted: salmonella enterica subsp. enterica serovar typhimurium, s9, 1.5 h.
The subject of data set [25] is Salmonella typhimurium. Kind of data set: Mutagenicity in Salmonella typhimurium TA97a assessed as mutagenicity index at 313.73 uM/plate incubated for 90 mins at 37 degC in presence of liver S9 fractions by Ames test relative to control. To be noted: salmonella enterica subsp. enterica serovar typhimurium, s9, 1.5 h.
In data set [26] the test system is Salmonella typhimurium. The data set is described as follows: Mutagenicity in Salmonella typhimurium TA100 assessed as mutagenicity index at 616.38 uM/plate incubated for 90 mins at 37 degC in absence of liver S9 fractions by Ames test relative to control. As to conditions: salmonella enterica subsp. enterica serovar typhimurium, 1.5 h.
Data set [27] relates to Salmonella typhimurium. Kind of data set: Mutagenicity in Salmonella typhimurium TA97a assessed as mutagenicity index at 616.38 uM/plate incubated for 90 mins at 37 degC in presence of liver S9 fractions by Ames test relative to control. To be noted: salmonella enterica subsp. enterica serovar typhimurium, s9, 1.5 h.
Data set [28] deals with Salmonella typhimurium. The data set is described as follows: Mutagenicity in Salmonella typhimurium TA100 assessed as mutagenicity index at 1454.55 uM/plate incubated for 90 mins at 37 degC in presence of liver S9 fractions by Ames test relative to control. To be noted: salmonella enterica subsp. enterica serovar typhimurium, s9, 1.5 h.
Data set [29] has as its system Salmonella typhimurium. Kind of data set: Mutagenicity in Salmonella typhimurium TA98 assessed as mutagenicity index at 1185.19 uM/plate incubated for 90 mins at 37 degC in presence of liver S9 fractions by Ames test relative to control. As to conditions: salmonella enterica subsp. enterica serovar typhimurium, s9, 1.5 h.
The test system of data set [30] is Salmonella typhimurium. Kind of data set: Mutagenicity in Salmonella typhimurium TA97a assessed as mutagenicity index at 1185.19 uM/plate incubated for 90 mins at 37 degC in presence of liver S9 fractions by Ames test relative to control. To be noted: salmonella enterica subsp. enterica serovar typhimurium, s9, 1.5 h.
Data set [31] concerns Salmonella typhimurium. The data set is described as follows: Mutagenicity in Salmonella typhimurium TA100 assessed as mutagenicity index at 905.66 uM/plate incubated for 90 mins at 37 degC in presence of liver S9 fractions by Ames test relative to control. To be noted: salmonella enterica subsp. enterica serovar typhimurium, s9, 1.5 h.

As to `CS(=O)(=O)OCCCCCCCCCCCCn1cc(CCCO)nn1`, the Activity_index with Salmonella typhimurium [1] is reported as 0.9; with Salmonella typhimurium [2], 1.3; with Salmonella typhimurium [3] it was 1.1; in the data set on Salmonella typhimurium [4] it was 1.3; in the data set on Salmonella typhimurium [5], 1.3; with Salmonella typhimurium [6], 0.8. The Activity_index in the data set on Salmonella typhimurium [7] came to 1.4; in the data set on Salmonella typhimurium [8], 0.9; with Salmonella typhimurium [9] it was 1.1; with Salmonella typhimurium [10], 1.2; in the data set with Salmonella typhimurium [11], 1.1; in the data set with Salmonella typhimurium [12], 0.9. Besides, the Activity_index in the data set on Salmonella typhimurium [13] turned out to be 0.9; with Salmonella typhimurium [14], 1.1; in the data set on Salmonella typhimurium [15], 0.9.
Take `CCOC(=O)c1cn(CCCCCCCCCOS(C)(=O)=O)nn1`: the Activity_index with Salmonella typhimurium [16] was 1.3; in the data set on Salmonella typhimurium [17] it was 1.4; in the data set on Salmonella typhimurium [18], 1.5; in the data set with Salmonella typhimurium [19], 1.4; in the data set on Salmonella typhimurium [20] it was 1.3; with Salmonella typhimurium [21], 1.5. Also, the Activity_index with Salmonella typhimurium [22] came to 1.1; with Salmonella typhimurium [23] it was 1.2; in the data set with Salmonella typhimurium [24] it was 1; in the data set on Salmonella typhimurium [25], 0.8; in the data set with Salmonella typhimurium [26] it was 1.3; in the data set on Salmonella typhimurium [27] it was 0.9. The Activity_index with Salmonella typhimurium [28] came to 0.9; in the data set on Salmonella typhimurium [29], 0.8; with Salmonella typhimurium [30], 0.7; in the data set with Salmonella typhimurium [31], 1.

Source of the values: ChEMBL document CHEMBL3611972, “Leishmanicidal, antiproteolytic, and mutagenic evaluation of alkyltriazoles and alkylphosphocholines” (Eur J Med Chem, 2015).
